In ChEMBL document CHEMBL2062394, “Azide-alkyne cycloaddition en route to novel 1H-1,2,3-triazole tethered isatin conjugates with in vitro cytotoxic evaluation” (Eur J Med Chem, 2012):

Columns and labels:
[1] = system: THP-1; test: Growth inhibition of human THP1 cells after 48 hrs by SRB assay; type: functional, cell-based; settings: for IC50: THP-1, 48 h
[2] = system: THP-1; test: Growth inhibition of human THP1 cells at 10 uM after 48 hrs by SRB assay; type: functional; settings: THP-1, 48 h, read-out: GI
[3] = system: A549; test: Growth inhibition of human A549 cells at 100 uM after 48 hrs by SRB assay; type: functional; settings: A549, 48 h, read-out: GI
[4] = system: Caco-2; test: Growth inhibition of human Caco2 cells at 50 uM after 48 hrs by SRB assay; type: functional; settings: Caco-2, 48 h, read-out: GI
[5] = system: PC-3; test: Growth inhibition of human PC3 cells at 50 uM after 48 hrs by SRB assay; type: functional; settings: PC-3, 48 h, read-out: GI
[6] = system: Caco-2; test: Growth inhibition of human Caco2 cells at 10 uM after 48 hrs by SRB assay; type: functional; settings: Caco-2, 48 h, read-out: GI
[7] = system: Caco-2; test: Growth inhibition of human Caco2 cells after 48 hrs by SRB assay; type: functional, cell-based; settings: for IC50: Caco-2, 48 h
[8] = system: THP-1; test: Growth inhibition of human THP1 cells at 50 uM after 48 hrs by SRB assay; type: functional; settings: THP-1, 48 h, read-out: GI
[9] = system: THP-1; test: Growth inhibition of human THP1 cells at 100 uM after 48 hrs by SRB assay; type: functional; settings: THP-1, 48 h, read-out: GI
[10] = system: PC-3; test: Growth inhibition of human PC3 cells after 48 hrs by SRB assay; type: functional, cell-based; settings: for IC50: PC-3, 48 h
[11] = system: PC-3; test: Growth inhibition of human PC3 cells at 10 uM after 48 hrs by SRB assay; type: functional; settings: PC-3, 48 h, read-out: GI
[12] = system: Caco-2; test: Growth inhibition of human Caco2 cells at 100 uM after 48 hrs by SRB assay; type: functional; settings: Caco-2, 48 h, read-out: GI
[13] = system: PC-3; test: Growth inhibition of human PC3 cells at 100 uM after 48 hrs by SRB assay; type: functional; settings: PC-3, 48 h, read-out: GI
[14] = system: A549; test: Growth inhibition of human A549 cells at 10 uM after 48 hrs by SRB assay; type: functional; settings: A549, 48 h, read-out: GI
[15] = system: A549; test: Growth inhibition of human A549 cells after 48 hrs by SRB assay; type: functional, cell-based; settings: for IC50: A549, 48 h
[16] = system: THP-1; test: Ratio of 5-fluorouracil IC50 to compound IC50 for human THP1 cells; type: functional
[17] = system: A549; test: Growth inhibition of human A549 cells at 50 uM after 48 hrs by SRB assay; type: functional; settings: A549, 48 h, read-out: GI
[18] = system: A549; test: Growth inhibition of human A549 cells at 1 uM after 48 hrs by SRB assay; type: functional; settings: A549, 48 h, read-out: GI
[19] = system: THP-1; test: Growth inhibition of human THP1 cells at 20 uM after 48 hrs by SRB assay; type: functional; settings: THP-1, 48 h, read-out: GI
[20] = system: Caco-2; test: Growth inhibition of human Caco2 cells at 20 uM after 48 hrs by SRB assay; type: functional; settings: Caco-2, 48 h, read-out: GI
[21] = system: PC-3; test: Growth inhibition of human PC3 cells at 1 uM after 48 hrs by SRB assay; type: functional; settings: PC-3, 48 h, read-out: GI

Row | Structure (SMILES) | growth inhibition (GI) [1] | IC50 [1] [µM] | inhibition of growth at 10 µM [2] [%] | inhibition of growth at 100 µM [3] [%] | inhibition of growth at 50 µM [4] [%] | inhibition of growth at 50 µM [5] [%] | inhibition of growth at 10 µM [6] [%] | growth inhibition (GI) [7] | IC50 [7] [µM] | inhibition of growth at 50 µM [8] [%] | inhibition of growth at 100 µM [9] [%] | growth inhibition (GI) [10] | IC50 [10] [µM] | inhibition of growth at 10 µM [11] [%] | inhibition of growth at 100 µM [12] [%] | inhibition of growth at 100 µM [13] [%] | inhibition of growth at 10 µM [14] [%] | growth inhibition (GI) [15] | IC50 [15] [µM] | inhibition of growth at 50 µM [17] [%] | also measured
1 | O=C1C(=O)N(CCn2cc(CN3C(=O)C(=O)c4cc(Cl)ccc43)nn2)c2ccccc21 | Dose-dependent effect | < 1 | 80 | 100 | 24 | 100 | 6 | Dose-dependent effect | > 100 | 90 | 100 | Dose-dependent effect | < 1 | 99 | 38 | 100 | 94 | Dose-dependent effect | < 1 | 98 | Ratio IC50 [16]: 2
2 | Cc1ccc2c(c1)C(=O)C(=O)N2Cc1cn(CCN2C(=O)C(=O)c3cc(Cl)ccc32)nn1 | Dose-dependent effect | < 1 | 71 | 98 | 52 | 55 | 39 | Dose-dependent effect | 44.9 | 91 | 92 | Dose-dependent effect | 32.6 | 36 | 56 | 70 | 81 | Dose-dependent effect | < 1 | 95 | Ratio IC50 [16]: 2
3 | O=C1C(=O)N(CCn2cc(CN3C(=O)C(=O)c4ccccc43)nn2)c2ccccc21 | Dose-dependent effect | < 1 | 100 | 99 | 20 | 100 | 9 | Dose-dependent effect | > 100 | 100 | 100 | Dose-dependent effect | < 1 | 99 | 36 | 100 | 96 | Dose-dependent effect | < 1 | 98 | Ratio IC50 [16]: 2
4 | CC(=O)O[C@H]1C(=O)[C@@]2(C)[C@H]([C@H](OC(=O)c3ccccc3)[C@]3(O)C[C@H](OC(=O)[C@H](O)[C@@H](NC(=O)c4ccccc4)c4ccccc4)C(C)=C1C3(C)C)[C@]1(OC(C)=O)CO[C@@H]1C[C@@H]2O [PACLITAXEL] | – | – | – | – | – | – | – | – | – | – | – | – | – | – | – | – | – | – | – | – | inhibition of growth at 1 µM [18]: 69%
5 | O=C1C(=O)N(CCn2cc(CN3C(=O)C(=O)c4cc(Br)ccc43)nn2)c2ccccc21 | Dose-dependent effect | 51.9 | 10 | 97 | 10 | 99 | 1 | Dose-dependent effect | > 100 | 53 | 88 | Dose-dependent effect | < 1 | 94 | 25 | 100 | 41 | Dose-dependent effect | 14.6 | 96 | –
6 | O=C1C(=O)N(CCn2cc(CN3C(=O)C(=O)c4cc(Br)ccc43)nn2)c2ccc(Cl)cc21 | Dose-dependent effect | 26.9 | 28 | 98 | 57 | 43 | 36 | Dose-dependent effect | 32.2 | 82 | 90 | Dose-dependent effect | 51.4 | 29 | 68 | 70 | 10 | Dose-dependent effect | 42.2 | 83 | –
7 | O=C1C(=O)N(CCn2cc(CN3C(=O)C(=O)c4cc(F)ccc43)nn2)c2ccccc21 | Dose-dependent effect | 39.9 | 10 | 99 | 1 | 98 | 0 | Dose-dependent effect | > 100 | 96 | 100 | Dose-dependent effect | 30.1 | 20 | 22 | 100 | 11 | Dose-dependent effect | 38.9 | 97 | –
8 | Cc1ccc2c(c1)C(=O)C(=O)N2Cc1cn(CCN2C(=O)C(=O)c3ccccc32)nn1 | Dose-dependent effect | < 1 | 89 | 100 | 0 | 100 | 0 | Dose-dependent effect | > 100 | 100 | 100 | Dose-dependent effect | 3.03 | 63 | 17 | 100 | 35 | Dose-dependent effect | 18.4 | 99 | Ratio IC50 [16]: 2
9 | O=C1C(=O)N(CCn2cc(CN3C(=O)C(=O)c4cc(F)ccc43)nn2)c2ccc(F)cc21 | Dose-dependent effect | 83.3 | 1 | 62 | 0 | 10 | 0 | Dose-dependent effect | > 100 | 13 | 92 | Dose-dependent effect | > 100 | 0 | 10 | 30 | 5 | Dose-dependent effect | 90.7 | 23 | –
10 | O=c1[nH]cc(F)c(=O)[nH]1 [FLUOROURACIL] | – | – | – | – | – | – | – | – | – | – | – | – | – | – | – | – | – | – | – | – | inhibition of growth at 20 µM [19]: 70%; inhibition of growth at 20 µM [20]: 68%
11 | O=C1C(=O)N(CCn2cc(CN3C(=O)C(=O)c4cc(Cl)ccc43)nn2)c2ccc(F)cc21 | Dose-dependent effect | 36.3 | 20 | 97 | 12 | 4 | 2 | Dose-dependent effect | > 100 | 70 | 92 | Dose-dependent effect | > 100 | 0 | 30 | 9 | 64 | Dose-dependent effect | 2.65 | 73 | –
12 | CO[C@@]12[C@H](COC(N)=O)C3=C(C(=O)C(C)=C(N)C3=O)N1C[C@@H]1N[C@@H]12 [MITOMYCIN] | – | – | – | – | – | – | – | – | – | – | – | – | – | – | – | – | – | – | – | – | inhibition of growth at 1 µM [21]: 60%
13 | O=C1C(=O)N(CCn2cc(CN3C(=O)C(=O)c4cc([N+](=O)[O-])ccc43)nn2)c2ccc(F)cc21 | Dose-dependent effect | 86.2 | 2 | 64 | 0 | 11 | 0 | Dose-dependent effect | > 100 | 14 | 90 | Dose-dependent effect | 95.2 | 2 | 0 | 33 | 7 | Dose-dependent effect | 93.2 | 22 | –
